# Laboratory results from patent US20120190743A1, “COMPOUNDS FOR TREATING DISORDERS OR DISEASES ASSOCIATED WITH NEUROKININ 2 RECEPTOR ACTIVITY” (UNITED PARAGON ASSOCIATES INC., priority 2009, published 2012).
# Experiments:
# human NK2 receptor [1] = target: T1, human NK2 receptor (Homo sapiens, UniProt P21452); assay: [125I]neurokinin A radioligand binding assay, CHO cells expressing recombinant human NK2 receptor; settings: various concentrations
# T1 construct: expressed in transfected cells; host or cells: Chinese Hamster Ovary (CHO) cells
# T1 sequence (P21452 1-398): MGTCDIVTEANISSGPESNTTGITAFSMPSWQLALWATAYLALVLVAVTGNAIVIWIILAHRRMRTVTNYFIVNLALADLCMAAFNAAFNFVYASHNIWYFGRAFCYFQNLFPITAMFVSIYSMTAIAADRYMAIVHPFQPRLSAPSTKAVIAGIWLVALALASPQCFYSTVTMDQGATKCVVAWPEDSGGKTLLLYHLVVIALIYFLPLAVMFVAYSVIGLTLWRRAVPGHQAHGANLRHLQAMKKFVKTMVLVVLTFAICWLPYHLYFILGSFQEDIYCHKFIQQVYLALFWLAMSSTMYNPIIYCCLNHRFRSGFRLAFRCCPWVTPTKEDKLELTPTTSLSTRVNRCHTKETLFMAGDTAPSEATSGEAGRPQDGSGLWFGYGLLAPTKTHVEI
# Method: The contents of Formulation A capsules were dissolved using various solvents and extracted using four different processes, as described in detail below. […] These isolates were called: Sample #19 Top Isolate, Sample #19 Bottom Isolate, Sample #20 Top Isolate, Sample #20 Bottom Isolate, Fraction X Isolate and Sample #2 Isolate. These isolates were then each tested in the radioligand binding assay.
# human NK2 receptor [2] = target: T1, human NK2 receptor; assay: Cellular/functional Ca2+ flux antagonist assay, CHO-K1 cells expressing recombinant human NK2 receptor; type: cell-based; settings: 3×10^−7 M to 1×10^−4 M, agonist [bAla]-NKA (4-10) 0.3 nM, FIG. 12
# Method: 6-methyl-myristic acid 2,3-dihydroxypropyl ester was synthesized as described above, and myristic acid 2,3-dihydroxypropyl ester was obtained. They were each prepared as solutions by addition of dimethyl sulfoxide (DMSO) to a concentration of 10 mM. These compounds were then used in cellular/functional calcium flux agonist and antagonist assays to determine the effect the compounds have on human NK2 receptor activity as measured by changes intracellular calcium measurements. These assays were carried out based on the method of Gerard et al.
# The NK2 receptor antagonist assay was performed essentially as follows. CHO-K1 cells stably expressing recombinant human NK2 receptor were plated on mixed extracellular matrix overnight in complete media. One hour before the assay, the media was replaced with Hank's Buffered Salt Solution (HBSS) containing 0.1% bovine serum albumin. The cells were then loaded with dye that measures intracellular calcium and baseline measurements of intracellular calcium were taken. […] Fluorescence at 485 nm excitation/515 nm emission was measured every 2 seconds for at least two minutes. The peak height of fluorescence in each of the wells receiving controls, compound 2 or compound 3 was recorded and compared to the peak height of fluorescence in the wells receiving only the agonist. […]
Compound,effect on neurokinin A binding to the NK2 receptor (in words) (human NK2 receptor [1]),antagonist activity in functional NK2 receptor antagonist assay (in words) (human NK2 receptor [2])
"CCCCCCCCC(C)CCCCC(=O)OCC(O)CO (stereo not shown) [6-methyl-myristic acid 2,3-dihydroxypropyl ester]",inhibited the ability of neurokinin A to bind the NK2 receptor in a concentration-dependent manner,displayed antagonist activity
"CCCCCCCCCCCCCC(=O)OCC(O)CO (stereo not shown) [myristic acid 2,3-dihydroxypropyl ester]",inhibited the ability of neurokinin A to bind the NK2 receptor,displayed antagonist activity
